The values that follow come from ChEMBL document CHEMBL5678818, “Discovery of potent SOS1 inhibitors that block RAS activation via disruption of the RAS-SOS1 interaction” (Proc Natl Acad Sci U S A, 2019).

The subject of assay [1] is Receptor-type tyrosine-protein kinase FLT3 (Homo sapiens), P36888 [D835Y]. Description: Inhibition of FLT3 D835Y mutant (unknown origin) assessed as residual activity at 1000 nM by KINOMEscan analysis relative to control.
The target in assay [2] is T1, Hormonally up-regulated neu tumor-associated kinase (Homo sapiens) (UniProt P57058).
T1 sequence (whole entry): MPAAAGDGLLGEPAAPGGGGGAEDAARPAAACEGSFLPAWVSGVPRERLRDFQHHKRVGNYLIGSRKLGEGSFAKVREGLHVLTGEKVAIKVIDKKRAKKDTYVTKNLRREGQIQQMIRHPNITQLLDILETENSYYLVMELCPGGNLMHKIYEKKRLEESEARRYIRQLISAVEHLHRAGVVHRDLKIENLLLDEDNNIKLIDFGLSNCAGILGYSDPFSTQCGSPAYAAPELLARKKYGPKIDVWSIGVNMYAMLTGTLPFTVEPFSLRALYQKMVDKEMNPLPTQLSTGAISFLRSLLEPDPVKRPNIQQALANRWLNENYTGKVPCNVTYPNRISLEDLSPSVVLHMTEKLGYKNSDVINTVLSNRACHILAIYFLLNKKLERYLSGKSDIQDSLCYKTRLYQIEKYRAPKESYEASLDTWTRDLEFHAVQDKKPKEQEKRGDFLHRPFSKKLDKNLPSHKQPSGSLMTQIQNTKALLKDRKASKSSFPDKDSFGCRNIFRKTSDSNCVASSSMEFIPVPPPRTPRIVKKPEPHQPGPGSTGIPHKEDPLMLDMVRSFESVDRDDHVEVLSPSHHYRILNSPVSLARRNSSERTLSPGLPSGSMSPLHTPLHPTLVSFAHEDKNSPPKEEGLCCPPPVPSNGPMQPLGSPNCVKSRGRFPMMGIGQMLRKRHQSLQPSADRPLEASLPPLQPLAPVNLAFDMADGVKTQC
Description: Inhibition of HUNK (unknown origin) assessed as residual activity at 1000 nM by KINOMEscan analysis relative to control.

Assay [3] has as its target Ribosomal protein S6 kinase alpha-5 (Homo sapiens) (UniProt O75582). Nature of the assay: Inhibition of C-terminal RPS6KA5 kinetic domain 2 (unknown origin) assessed as residual activity at 1000 nM by KINOMEscan analysis relative to control.
Assay [4] addresses Mitogen-activated protein kinase kinase kinase kinase 5 (Homo sapiens) (UniProt Q9Y4K4). Description: Inhibition of MAP4K5 (unknown origin) assessed as residual activity at 1000 nM by KINOMEscan analysis relative to control.
Assay [5] deals with Cyclin-dependent kinase-like 3 (Homo sapiens) (UniProt Q8IVW4). Nature of the assay: Inhibition of CDKL3 (unknown origin) assessed as residual activity at 1000 nM by KINOMEscan analysis relative to control.
Assay [6] has as its target T2, Serine/threonine-protein kinase RIO3 (Homo sapiens) (UniProt O14730).
T2 sequence (whole entry): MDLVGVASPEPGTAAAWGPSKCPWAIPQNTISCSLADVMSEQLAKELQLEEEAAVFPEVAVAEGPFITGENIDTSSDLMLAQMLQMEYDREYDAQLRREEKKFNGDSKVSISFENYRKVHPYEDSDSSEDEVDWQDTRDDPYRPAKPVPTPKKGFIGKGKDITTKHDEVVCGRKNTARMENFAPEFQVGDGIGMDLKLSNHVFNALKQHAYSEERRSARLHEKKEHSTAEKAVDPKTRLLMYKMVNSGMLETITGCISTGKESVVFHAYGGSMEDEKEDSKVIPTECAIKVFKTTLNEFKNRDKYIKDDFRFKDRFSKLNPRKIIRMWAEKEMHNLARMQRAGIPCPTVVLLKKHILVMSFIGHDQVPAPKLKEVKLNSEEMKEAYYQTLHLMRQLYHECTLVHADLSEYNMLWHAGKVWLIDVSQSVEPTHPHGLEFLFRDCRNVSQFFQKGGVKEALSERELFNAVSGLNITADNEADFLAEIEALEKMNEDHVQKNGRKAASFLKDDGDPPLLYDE
Description: Inhibition of RIOK3 (unknown origin) assessed as residual activity at 1000 nM by KINOMEscan analysis relative to control.

In assay [7] the target is Cyclin-dependent kinase 11B (Homo sapiens) (UniProt P21127). Description: Inhibition of CDC2L1 (unknown origin) assessed as residual activity at 1000 nM by KINOMEscan analysis relative to control.
Sequence of Cyclin-dependent kinase 11B (Homo sapiens) (P21127 whole entry): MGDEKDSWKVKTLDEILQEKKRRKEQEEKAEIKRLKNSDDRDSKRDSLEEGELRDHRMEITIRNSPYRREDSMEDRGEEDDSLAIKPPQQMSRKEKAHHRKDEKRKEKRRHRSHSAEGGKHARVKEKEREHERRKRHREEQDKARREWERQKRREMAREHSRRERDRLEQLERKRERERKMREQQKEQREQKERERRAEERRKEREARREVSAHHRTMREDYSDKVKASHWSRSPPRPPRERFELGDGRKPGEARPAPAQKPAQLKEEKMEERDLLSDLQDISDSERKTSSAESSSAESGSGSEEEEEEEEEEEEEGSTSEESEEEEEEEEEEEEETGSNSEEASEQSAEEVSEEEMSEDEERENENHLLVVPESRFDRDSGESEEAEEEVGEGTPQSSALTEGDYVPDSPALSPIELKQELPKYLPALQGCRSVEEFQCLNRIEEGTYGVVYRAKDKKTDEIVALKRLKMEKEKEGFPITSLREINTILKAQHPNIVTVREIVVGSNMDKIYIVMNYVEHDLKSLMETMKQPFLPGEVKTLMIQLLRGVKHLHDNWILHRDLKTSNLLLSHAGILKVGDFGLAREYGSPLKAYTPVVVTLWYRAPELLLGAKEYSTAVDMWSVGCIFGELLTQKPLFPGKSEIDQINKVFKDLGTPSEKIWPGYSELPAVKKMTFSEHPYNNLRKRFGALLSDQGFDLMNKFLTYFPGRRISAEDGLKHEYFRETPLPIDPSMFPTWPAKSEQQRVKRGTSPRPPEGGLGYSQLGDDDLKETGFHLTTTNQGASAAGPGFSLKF
Assay [8] deals with Tyrosine-protein kinase ABL1 (Homo sapiens), P00519 [E255K]. Description: Inhibition of phosphorylated ABL1 E255K mutant (unknown origin) assessed as residual activity at 1000 nM by KINOMEscan analysis relative to control.
Sequence of Tyrosine-protein kinase ABL1 (Homo sapiens), P00519 [E255K] (P00519 whole entry E255K): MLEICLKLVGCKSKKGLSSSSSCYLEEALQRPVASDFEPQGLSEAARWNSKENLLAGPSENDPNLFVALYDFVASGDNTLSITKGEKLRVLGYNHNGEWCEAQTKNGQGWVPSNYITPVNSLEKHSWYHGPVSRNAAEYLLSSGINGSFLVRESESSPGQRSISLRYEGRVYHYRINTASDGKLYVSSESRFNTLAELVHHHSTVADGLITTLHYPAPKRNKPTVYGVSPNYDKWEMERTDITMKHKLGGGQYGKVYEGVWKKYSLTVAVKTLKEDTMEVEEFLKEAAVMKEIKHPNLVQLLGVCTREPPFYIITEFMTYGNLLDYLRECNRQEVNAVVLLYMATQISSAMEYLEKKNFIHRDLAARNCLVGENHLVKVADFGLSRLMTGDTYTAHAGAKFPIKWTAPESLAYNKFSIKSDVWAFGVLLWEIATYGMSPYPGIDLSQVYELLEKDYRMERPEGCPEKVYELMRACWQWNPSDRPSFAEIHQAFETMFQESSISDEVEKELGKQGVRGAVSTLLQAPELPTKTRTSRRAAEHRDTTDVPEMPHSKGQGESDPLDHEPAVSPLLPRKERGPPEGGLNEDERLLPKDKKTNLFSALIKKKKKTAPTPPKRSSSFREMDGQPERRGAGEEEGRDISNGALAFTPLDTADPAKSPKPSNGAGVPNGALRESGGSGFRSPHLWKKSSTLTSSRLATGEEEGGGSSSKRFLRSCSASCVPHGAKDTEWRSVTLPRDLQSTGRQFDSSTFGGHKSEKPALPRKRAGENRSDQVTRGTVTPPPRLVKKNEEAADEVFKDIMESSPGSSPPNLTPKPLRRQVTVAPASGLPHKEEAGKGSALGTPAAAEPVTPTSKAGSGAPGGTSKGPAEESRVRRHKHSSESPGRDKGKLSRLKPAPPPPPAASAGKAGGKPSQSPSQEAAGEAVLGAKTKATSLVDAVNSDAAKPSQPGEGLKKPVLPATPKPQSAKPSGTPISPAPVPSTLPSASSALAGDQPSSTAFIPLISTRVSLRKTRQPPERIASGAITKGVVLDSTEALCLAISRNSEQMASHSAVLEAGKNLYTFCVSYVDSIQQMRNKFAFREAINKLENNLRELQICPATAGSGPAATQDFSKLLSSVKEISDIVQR
In assay [9] the test system is Mast/stem cell growth factor receptor Kit (Homo sapiens), P10721 [A829P]. Description: Inhibition of KIT A829P mutant (unknown origin) assessed as residual activity at 1000 nM by KINOMEscan analysis relative to control.
Assay [10] addresses 5'-AMP-activated protein kinase catalytic subunit alpha-2 (Homo sapiens) (UniProt P54646). Nature of the assay: Inhibition of AMPK-alpha2 (unknown origin) assessed as residual activity at 1000 nM by KINOMEscan analysis relative to control.
In assay [11] the target is Tyrosine-protein kinase JAK1 (Homo sapiens) (UniProt P23458). Nature of the assay: Inhibition of JAK1 JH2 pseudokinase domain (unknown origin) assessed as residual activity at 1000 nM by KINOMEscan analysis relative to control.
Sequence of Tyrosine-protein kinase JAK1 (Homo sapiens) (P23458 whole entry, the tested form may be a part): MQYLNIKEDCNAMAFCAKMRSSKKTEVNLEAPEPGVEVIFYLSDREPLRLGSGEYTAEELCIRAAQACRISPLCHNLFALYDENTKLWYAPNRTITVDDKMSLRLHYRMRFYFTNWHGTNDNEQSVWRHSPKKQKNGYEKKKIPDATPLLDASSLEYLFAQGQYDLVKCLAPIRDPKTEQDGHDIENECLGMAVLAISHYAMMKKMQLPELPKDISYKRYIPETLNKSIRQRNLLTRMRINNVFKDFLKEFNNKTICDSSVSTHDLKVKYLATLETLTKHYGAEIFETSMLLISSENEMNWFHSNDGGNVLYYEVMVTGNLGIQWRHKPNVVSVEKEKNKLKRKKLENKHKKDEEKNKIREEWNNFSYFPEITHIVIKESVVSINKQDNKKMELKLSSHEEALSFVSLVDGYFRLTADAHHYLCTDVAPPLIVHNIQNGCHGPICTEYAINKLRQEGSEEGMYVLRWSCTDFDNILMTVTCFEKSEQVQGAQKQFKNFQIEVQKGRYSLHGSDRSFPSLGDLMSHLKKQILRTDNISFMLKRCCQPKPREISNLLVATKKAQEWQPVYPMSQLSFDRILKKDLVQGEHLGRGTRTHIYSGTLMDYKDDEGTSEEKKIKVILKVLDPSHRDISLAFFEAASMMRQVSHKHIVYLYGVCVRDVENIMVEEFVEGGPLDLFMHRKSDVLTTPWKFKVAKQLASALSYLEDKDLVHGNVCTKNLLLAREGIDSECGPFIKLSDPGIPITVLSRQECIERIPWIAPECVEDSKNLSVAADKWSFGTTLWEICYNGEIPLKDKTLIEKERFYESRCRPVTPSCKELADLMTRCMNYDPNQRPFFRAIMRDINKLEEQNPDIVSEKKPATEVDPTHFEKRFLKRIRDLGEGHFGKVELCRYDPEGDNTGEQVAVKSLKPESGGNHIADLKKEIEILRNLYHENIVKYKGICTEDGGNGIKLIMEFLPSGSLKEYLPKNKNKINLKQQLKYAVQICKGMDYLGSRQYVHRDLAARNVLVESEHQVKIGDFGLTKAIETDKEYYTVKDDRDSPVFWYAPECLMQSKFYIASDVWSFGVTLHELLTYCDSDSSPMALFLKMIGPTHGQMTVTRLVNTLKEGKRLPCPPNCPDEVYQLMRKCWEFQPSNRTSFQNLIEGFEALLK
For assay [12], the target named is MAP kinase-interacting serine/threonine-protein kinase 1 (Homo sapiens) (UniProt Q9BUB5). Description: Inhibition of MKNK1 (unknown origin) assessed as residual activity at 1000 nM by KINOMEscan analysis relative to control.
Sequence of MAP kinase-interacting serine/threonine-protein kinase 1 (Homo sapiens) (Q9BUB5 whole entry, looked up): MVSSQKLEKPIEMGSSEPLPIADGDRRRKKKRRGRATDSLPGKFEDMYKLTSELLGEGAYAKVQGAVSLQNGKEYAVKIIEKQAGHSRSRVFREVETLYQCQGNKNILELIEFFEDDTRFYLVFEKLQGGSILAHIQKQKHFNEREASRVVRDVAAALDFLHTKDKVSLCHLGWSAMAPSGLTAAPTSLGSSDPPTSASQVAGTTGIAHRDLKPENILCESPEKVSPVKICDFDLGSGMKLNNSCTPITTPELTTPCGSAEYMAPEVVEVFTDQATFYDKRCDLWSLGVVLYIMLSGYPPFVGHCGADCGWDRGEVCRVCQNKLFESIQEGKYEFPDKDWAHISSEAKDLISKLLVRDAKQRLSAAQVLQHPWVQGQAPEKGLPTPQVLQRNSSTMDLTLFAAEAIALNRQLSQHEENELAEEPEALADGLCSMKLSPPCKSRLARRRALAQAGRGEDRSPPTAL
The target of assay [13] is G protein-coupled receptor kinase 4 (Homo sapiens) (UniProt P32298). Description: Inhibition of GRK4 (unknown origin) assessed as residual activity at 1000 nM by KINOMEscan analysis relative to control.

Sequence of Mitogen-activated protein kinase kinase kinase kinase 5 (Homo sapiens) (Q9Y4K4 whole entry, looked up): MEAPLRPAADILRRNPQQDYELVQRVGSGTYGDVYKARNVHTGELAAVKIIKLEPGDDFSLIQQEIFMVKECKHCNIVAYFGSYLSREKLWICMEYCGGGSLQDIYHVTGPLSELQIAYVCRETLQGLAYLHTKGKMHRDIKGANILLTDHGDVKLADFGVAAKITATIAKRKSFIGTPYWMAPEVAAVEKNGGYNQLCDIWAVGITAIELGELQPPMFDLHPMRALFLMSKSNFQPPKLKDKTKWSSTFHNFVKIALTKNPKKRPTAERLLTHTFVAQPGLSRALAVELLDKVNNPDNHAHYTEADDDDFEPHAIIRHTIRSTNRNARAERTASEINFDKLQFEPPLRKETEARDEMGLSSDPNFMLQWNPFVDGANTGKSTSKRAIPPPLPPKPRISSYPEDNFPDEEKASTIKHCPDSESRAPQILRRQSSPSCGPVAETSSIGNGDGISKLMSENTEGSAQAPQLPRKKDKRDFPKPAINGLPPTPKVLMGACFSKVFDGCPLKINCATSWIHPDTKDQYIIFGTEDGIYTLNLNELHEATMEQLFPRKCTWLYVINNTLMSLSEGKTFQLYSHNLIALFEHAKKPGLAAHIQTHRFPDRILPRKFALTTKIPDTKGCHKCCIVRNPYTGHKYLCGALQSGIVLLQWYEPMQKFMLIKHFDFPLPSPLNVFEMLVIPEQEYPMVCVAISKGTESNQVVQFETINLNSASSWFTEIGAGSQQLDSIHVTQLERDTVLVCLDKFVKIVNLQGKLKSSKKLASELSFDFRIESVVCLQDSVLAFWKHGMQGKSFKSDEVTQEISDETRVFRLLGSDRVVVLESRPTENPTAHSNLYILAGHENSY
Sequence of 5'-AMP-activated protein kinase catalytic subunit alpha-2 (Homo sapiens) (P54646 whole entry, looked up, the tested form may be a part): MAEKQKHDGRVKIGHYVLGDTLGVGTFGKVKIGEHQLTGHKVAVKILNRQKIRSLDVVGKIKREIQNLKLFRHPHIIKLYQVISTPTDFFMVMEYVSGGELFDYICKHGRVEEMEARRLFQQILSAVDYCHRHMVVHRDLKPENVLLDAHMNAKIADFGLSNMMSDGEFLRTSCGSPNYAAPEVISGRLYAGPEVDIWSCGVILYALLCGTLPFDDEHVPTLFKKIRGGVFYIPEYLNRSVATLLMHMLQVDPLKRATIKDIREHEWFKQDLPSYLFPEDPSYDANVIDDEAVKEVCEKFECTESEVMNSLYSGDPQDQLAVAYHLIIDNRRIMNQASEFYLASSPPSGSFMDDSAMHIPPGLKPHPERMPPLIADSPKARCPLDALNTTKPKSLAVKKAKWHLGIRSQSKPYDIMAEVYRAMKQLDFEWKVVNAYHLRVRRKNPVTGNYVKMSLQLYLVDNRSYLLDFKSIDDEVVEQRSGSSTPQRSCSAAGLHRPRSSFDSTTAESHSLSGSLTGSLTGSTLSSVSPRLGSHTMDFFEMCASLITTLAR

Consider `COc1cc2nc(C)nc(N[C@H](C)c3cccc(-c4cn[nH]c4)c3)c2cc1OC`, for which the Activity in [1] worked out at 89%; in assay [2] it was 94%; in assay [3], 100%; in assay [4], 96%; in assay [5], 87%; in assay [6], 88%. The Activity in assay [7] stood at 94%; in assay [8], 65%; in [9], 93%; in [10], 81%; in assay [11] it was 78%; in assay [12], 100%. For the same molecule, the Activity in assay [13] came out at 95%.

As for `COc1cc2ncnc(N[C@H](C)c3cccc4ccccc34)c2cc1OC`, the Activity in [1] was found to be 96%; in assay [2], 76%; in assay [3], 92%; in [4] it was 100%; in assay [5], 84%; in assay [6], 83%. Moreover, the Activity in [7] came to 83%; in [8] it was 89%; in [9], 94%; in assay [10], 98%; in [11], 100%; in assay [12], 56%. Further, the Activity in assay [13] amounted to 100%.
